Series [1] relates to cardiomyocyte multicellular construct (human iPS cell derived cardiomyocytes). Put plainly: Example 8: contractile force of cardiomyocyte multicellular construct, ratio of specimens with halved contractile force. The settings on record: alone or with azithromycin fixed to 3 μM; for Ratio of specimens whose contractile force decreased to half of that before the addition, Dose 1 (%): Dose 1 of Table 5: azithromycin 1 μM, chloroquine or hydroxychloroquine 0.3 μM; for Ratio of specimens whose contractile force decreased to half of that before the addition, Dose 2 (%): Dose 2 of Table 5: azithromycin 3 μM, chloroquine or hydroxychloroquine 1 μM; for Ratio of specimens whose contractile force decreased to half of that before the addition, Dose 3 (%): Dose 3 of Table 5: azithromycin 10 μM, chloroquine or hydroxychloroquine 3 μM.

Series [2] has the same test system. Put plainly: Example 8: calcium imaging, ratio of specimens with arrhythmia waveform. Conditions: for Ratio of specimens that exhibited the calcium ion signal waveform corresponding to arrhythmia, Dose 1 (%): Dose 1 of Table 5: azithromycin 1 μM, chloroquine or hydroxychloroquine 0.3 μM; for Ratio of specimens that exhibited the calcium ion signal waveform corresponding to arrhythmia, Dose 1 (%) / Ratio of specimens that exhibited the calcium ion signal waveform corresponding to arrhythmia, Dose 2 (%) / Ratio of specimens that exhibited the calcium ion signal waveform corresponding to arrhythmia, Dose 3 (%) / Ratio of specimens that exhibited the calcium ion signal waveform corresponding to arrhythmia, Dose 4 (%): alone or with azithromycin fixed to 3 μM; for Ratio of specimens that exhibited the calcium ion signal waveform corresponding to arrhythmia, Dose 2 (%): Dose 2 of Table 5: azithromycin 3 μM, chloroquine or hydroxychloroquine 1 μM; for Ratio of specimens that exhibited the calcium ion signal waveform corresponding to arrhythmia, Dose 3 (%): Dose 3 of Table 5: azithromycin 10 μM, chloroquine or hydroxychloroquine 3 μM; for Ratio of specimens that exhibited the calcium ion signal waveform corresponding to arrhythmia, Dose 4 (%): Dose 4 of Table 5: chloroquine or hydroxychloroquine 10 μM, azithromycin alone: no Dose 4 in Table 5.

The test system is the same in series [3]. Briefly: Example 7: calcium imaging evaluation of response of cardiomyocyte multicellular construct against compound. The settings on record: seventh day of the culture; for Calcium ion signal waveform compared with before the addition: 1000 nM, cumulative addition, 10 minutes after addition; for Beating rate compared with before the addition: cumulative addition 1 to 1000 nM. It counts as cell-based. How it is done: Cells were seeded and cultured in the same manner as in Example 6, except that the cells were seeded such that the seeding amount per unit area of the scaffold was 6000 cells/mm^2.
On the sixth day of the culture, the cardiomyocyte multicellular construct was placed such that a surface containing more cells faced the bottom surface of a culture dish (IWAKI Multiwell Plate, Non-treated surface for suspension cell culture 6. Well), and was then left to stand for a day. On the seventh day of the culture, a calcium indicator (EarlyTox Cardiotoxicity Kit, Molecular Devices LLC) was added to the culture medium at a volume ratio of 25/100 to fluorescently stain calcium ions in the cardiomyocytes.
The fluorescence intensities in the entire 10-fold magnified visual fields of the obtained images were plotted versus time using an analysis software CellPathfinder, Yokogawa Electric Corp.), and thus signal waveforms of calcium ions in the cardiomyocytes were obtained. Verapamil is a Ca channel antagonist having an Ikr inhibitory effect.

Series [4] has the same test system. Put plainly: Example 7: contractile force and contraction-relaxation rate of cardiomyocyte multicellular construct (MUSCLEMOTION). It counts as cell-based. Conditions: 1000 nM, seventh day of the culture.
For series [5], the system named is human iPS cell derived cardiomyocyte multicellular construct. Put plainly: Example 5: calcium ion imaging of multicellular construct, response against isoproterenol. The settings on record: 100 nM, 5 minutes after addition, fourth day of the culture; 60 bpm before the addition. It counts as cell-based.
Procedure: Cells were seeded in the same manner as in Example 4, and a liquid culture medium was added 4 hours later to start cell culturing. On the fourth day of the culture, a calcium indicator (EarlyTox Cardiotoxicity Kit, Molecular Devices LLC.) was added to the culture medium at a volume ratio of 5/100 to fluorescently stain calcium ions in the cardiomyocytes.
Videos were captured at 20 FPS using a confocal imaging confocal imaging system (CellVoyager CQ1, Yokogawa Electric Corp.). Fluorescent areas in the obtained videos were recognized using an analysis software CellPathfinder, Yokogawa Electric Corp.), and signal waveforms of calcium ions in the cardiomyocytes were obtained by plotting the fluorescence intensities versus time.
Series [6] relates to cardiomyocyte multicellular construct (human iPS cell derived cardiomyocytes).

This is an account of results in patent publication US20220389355A1, “CELL AGGREGATE, PRODUCING METHOD FOR MANUFACTURING CELL AGGREGATE, PRODUCING KIT FOR CELL AGGREGATE, AND CHEMICAL COMPOUND EVALUATING METHOD USING CELL AGGREGATE” (THE JAPAN WOOL TEXTILE CO., LTD., priority 2019, published 2022).

Molecules are shown by their SMILES. Where two headings read alike, the source gives them in different places.

In the case of `CC[C@H]1OC(=O)[C@H](C)[C@@H](O[C@H]2C[C@@](C)(OC)[C@@H](O)[C@H](C)O2)[C@H](C)[C@@H](O[C@@H]2O[C@H](C)C[C@H](N(C)C)[C@H]2O)[C@](C)(O)C[C@@H](C)CN(C)[C@H](C)[C@@H](O)[C@]1(C)O` [Azithromycin, azithromycin], in series [1], the “Ratio of specimens whose contractile force decreased to half of that before the addition, Dose 1 (%)” value amounted to 0%; the “Ratio of specimens whose contractile force decreased to half of that before the addition, Dose 2 (%)” value was 0%; the “Ratio of specimens whose contractile force decreased to half of that before the addition, Dose 3 (%)” value turned out to be 100%. Besides, in series [2], the “Ratio of specimens that exhibited the calcium ion signal waveform corresponding to arrhythmia, Dose 1 (%)” value came to 0%; the “Ratio of specimens that exhibited the calcium ion signal waveform corresponding to arrhythmia, Dose 2 (%)” value came out at 0%; the “Ratio of specimens that exhibited the calcium ion signal waveform corresponding to arrhythmia, Dose 3 (%)” value is recorded as 0%; the “Ratio of specimens that exhibited the calcium ion signal waveform corresponding to arrhythmia, Dose 4 (%)” value is listed as 0%.

Consider `CCN(CCO)CCCC(C)Nc1ccnc2cc(Cl)ccc12` (stereo not drawn) [Hydroxychloroquine, hydroxychloroquine], for which, in series [1], the “Ratio of specimens whose contractile force decreased to half of that before the addition, Dose 1 (%)” value amounted to 0%; the “Ratio of specimens whose contractile force decreased to half of that before the addition, Dose 2 (%)” value amounted to 0%; the “Ratio of specimens whose contractile force decreased to half of that before the addition, Dose 3 (%)” value stood at 20%. Besides, the “Ratio of specimens whose contractile force decreased to half of that before the addition, Dose 4 (%)” value in series [1] (Dose 4 of Table 5: chloroquine or hydroxychloroquine 10 μM) came to 100%. Further, in series [2], the “Ratio of specimens that exhibited the calcium ion signal waveform corresponding to arrhythmia, Dose 1 (%)” value is recorded as 0%; the “Ratio of specimens that exhibited the calcium ion signal waveform corresponding to arrhythmia, Dose 2 (%)” value came to 0%; the “Ratio of specimens that exhibited the calcium ion signal waveform corresponding to arrhythmia, Dose 3 (%)” value stood at 20%; the “Ratio of specimens that exhibited the calcium ion signal waveform corresponding to arrhythmia, Dose 4 (%)” value was found to be 80%. Also, the “Risk of arrhythmia (conclusion from FIG. 20 and Table 6)” value in series [2] (concentrations of Table 5) is given as “increase the risk of arrhythmia”.

As for `COc1ccc(CCN(C)CCCC(C#N)(c2ccc(OC)c(OC)c2)C(C)C)cc1OC` (stereo not drawn) [Verapamil, verapamil], in series [3], the “Calcium ion signal waveform compared with before the addition” value is reported as “became smaller” and the “Beating rate compared with before the addition” value was “increased”. In addition, in series [4], the “Contractile force compared with before the addition” value is “decreased” and the “Contraction-relaxation rate compared with before the addition” value is reported as “decreased”.

In the case of `CC(C)NCC(O)c1ccc(O)c(O)c1` (stereo not drawn) [Isoproterenol, isoproterenol], in series [5], the “Beating rate after the addition” value is 76 bpm. Further, in series [3], the “Calcium ion signal waveform compared with before the addition” value is “became sharper” and the “Beating rate compared with before the addition” value is “increased”. For the same compound, in series [4], the “Contractile force compared with before the addition” value is on record as “increased” and the “Contraction-relaxation rate compared with before the addition” value is “increased”.

On to `CCN(CC)CCCC(C)Nc1ccnc2cc(Cl)ccc12` (stereo not drawn) [Chloroquine, chloroquine], for which the “Risk of arrhythmia (conclusion from FIG. 20 and Table 6)” value in series [6] was “increase the risk of arrhythmia”.

With `Cc1cccc(CCN2CCC(C(=O)c3ccc(NS(C)(=O)=O)cc3)CC2)n1` [Example E-4031], in series [3], the “Calcium ion signal waveform compared with before the addition” value is given as “became flattened” and the “Beating rate compared with before the addition” value is given as “decreased”. Also, in series [4], the “Contractile force compared with before the addition” value is on record as “decreased” and the “Contraction-relaxation rate compared with before the addition” value is “decreased”.
